Results from US9895330B2, “IDO inhibitors” (BRISTOL-MYERS SQUIBB COMPANY, priority 2013, dated 2018).

Target: T1, IDO (IFNγ-treated Hela cells) (Homo sapiens, UniProt P14902)
T1 construct: endogenous in cells; host or cells: Hela cells treated with IFNγ (10 ng/ml)
Assay: IDO Kynurenine Assay with Hela Cells
Format: cell-based
Conditions: IFNγ 10 ng/ml, 20 hours incubation, kynurenine absorbance at 490 nm, read-out: Hela Cells LLE_IDO_ABS_DR (IC50)
Procedure: IDO Kynurenine Assay with Hela Cells
Hela cells were seeded at 30,000 cells per well in 40 ul RPMI/phenol red free media contains 10% FBS in a 384-well black wall clear bottom tissue culture plate (Matrix Technologies LLC). 270 nl of certain concentration of compound was then added to each well using ECHO liquid handling systems. 40 ul of IFNγ (R&D, 285-IF-100) at final concentration of 10 ng/ml was then added to column 2-24 with media to column 1 as control. The cells were incubated for 20 hours in 37° C. incubator with 5% CO2.
The compound treatments were stopped by adding trichloroacetic acid (Sigma-Aldrich) to a final concentration at 0.2%. The cell plate was further incubated at 50° C. for 30 minute. The equal volume supernatant (20 uL) and 0.2% (w/v) Ehrlich reagent (4-dimethylaminobenzaldehyde, Sigma-Aldrich) in glacial acetic acid were mixed in a new clear bottom 384-well plate. This plate was then incubated at room temperature for 30 minute. The absorbance at 490 nm was measured on Envision plate reader.
Compound IC50 values were calculated using the counts of no IFNγ control as one hundred percent inhibition, and counts of no compound but DMSO treatment as zero percent inhibition.

T1 sequence (P14902 whole entry): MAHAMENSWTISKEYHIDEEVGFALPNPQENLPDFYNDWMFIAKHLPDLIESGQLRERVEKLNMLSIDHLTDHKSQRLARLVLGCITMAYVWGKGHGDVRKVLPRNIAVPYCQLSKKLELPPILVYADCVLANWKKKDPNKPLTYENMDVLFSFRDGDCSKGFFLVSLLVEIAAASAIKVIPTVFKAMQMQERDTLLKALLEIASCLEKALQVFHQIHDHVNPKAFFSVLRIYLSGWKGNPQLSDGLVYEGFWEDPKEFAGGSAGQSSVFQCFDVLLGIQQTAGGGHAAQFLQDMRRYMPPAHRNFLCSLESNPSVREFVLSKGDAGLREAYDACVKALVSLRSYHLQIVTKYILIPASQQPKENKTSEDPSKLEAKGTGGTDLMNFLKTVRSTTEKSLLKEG

| IC50 [nM] | SMILES |
| --- | --- |
| 10 | Cc1ccc(CC(=O)Nc2cc(-c3cc(F)ccc3C(=O)O)ccc2N(CC(C)C)CC(C)C)cc1 [Example 1, 4′-(Diisobutylamino)-5-fluoro-3′-(2-p-tolylacetamido)biphenyl-2-carboxylic acid] |
| 5.02 | Cc1ccc(CC(=O)Nc2cc(-c3ccccc3-c3nnn[nH]3)ccc2N(CC(C)C)CC(C)C)cc1 [Example 2, N-(4-(Diisobutylamino)-2′-(1H-tetrazol-5-yl)biphenyl-3-yl)-2-p-tolylacetamide] |
| 20 | CC(C)CN(Cc1ccccc1)c1ccc(-c2ccccc2-c2nnn[nH]2)cc1NC(=O)Cc1ccccc1C(F)(F)F [Example 3, N,N-(4-(Benzyl(isobutyl)amino)-2′-(1H-tetrazol-5-yl)biphenyl-3-yl)-2-(2-(trifluoromethyl)phenyl)acetamide] |
| 10 | Cc1ccc(CC(=O)Nc2cc(-c3ccccc3C(=O)O)ccc2N(CC(C)C)CC(C)C)cc1 [Example 4, 4′-(diisobutylamino)-3′-(2-p-tolylacetamido) biphenyl-2-carboxylic acid] |
| 40 | CC(C)CN(c1ccc(-c2ccccc2C(=O)O)cc1NC(=O)Cc1ccccc1F)C1CCCCC1 [Example 5, 4′-(cyclohexyl(isobutyl)amino)-3′-(2-(2-fluorophenyl)acetamido) biphenyl-2-carboxylic acid] |
| 50 | CC(C)CN(c1ccc(-c2cc(F)ccc2C(=O)O)cc1NC(=O)Cc1ccccc1F)C1CCCCC1 [Example 6, 4′-(cyclohexyl(isobutyl)amino)-5-fluoro-3′-(2-(2-fluorophenyl)acetamido) biphenyl-2-carboxylic acid] |
| 130 | CC(C)CN(c1ccc(-c2ccccc2-c2nnn[nH]2)cc1NC(=O)Cc1ccccc1C(F)(F)F)C1CCCCC1 [Example 7, N-(4-(cyclohexyl(isobutyl)amino)-2′-(1H-tetrazol-5-yl)biphenyl-3-yl)-2-(2-(trifluoromethyl)phenyl)acetamide] |
| 940 | CC(C)CN(c1ccc(-c2ccccc2C(=O)O)cc1NC(=O)Cc1ccccc1C(F)(F)F)C1CCCCC1 [Example 8, 4′-(cyclohexyl(isobutyl)amino)-3′-(2-(2-(trifluoromethyl)phenyl)acetamido)biphenyl-2-carboxylic acid] |
| 20 | CC(C)CN(c1ccc(-c2ccccc2-c2nnn[nH]2)cc1NC(=O)Cc1ccccc1F)C1CCCCC1 [Example 9, N-(4-(cyclohexyl(isobutyl)amino)-2′-(1H-tetrazol-5-yl)biphenyl-3-yl)-2-(2-fluorophenyl)acetamide] |
| 7.09 | CCCCN(c1ccc(-c2ccccc2-c2nnn[nH]2)cc1NC(=O)Cc1ccccc1F)C1CCCCC1 [Example 10, N-(4-(butyl(cyclohexyl)amino)-2′-(1H-tetrazol-5-yl)-[1,1′-biphenyl]-3-yl)-2-(2-fluorophenyl) acetamide] |
| 4.05 | COc1ccc(CC(=O)Nc2cc(-c3ccccc3-c3nnn[nH]3)ccc2N(CC(C)C)CC(C)C)cc1 [Example 11, N-(4-(diisobutylamino)-2′-(1H-tetrazol-5-yl)biphenyl-3-yl)-2-(4-methoxyphenyl)acetamide] |
| 1330 | CC(C)CN(CC(C)C)c1ccc(-c2ccccc2-c2nnn[nH]2)cc1NC(=O)Cc1ccc(C(C)C)cc1 [Example 13, N-(4-(diisobutylamino)-2′-(1H-tetrazol-5-yl)biphenyl-3-yl)-2-(4-isopropylphenyl) acetamide] |
| 20 | CC(C)CN(CC(C)C)c1ccc(-c2ccccc2-c2nnn[nH]2)cc1NC(=O)Cc1ccc2c(c1)OCO2 [Example 14, 2-(benzo[d][1,3]dioxol-5-yl)-N-(4-(diisobutylamino)-2′-(1H-tetrazol-5-yl)biphenyl-3-yl)acetamide] |
| 90 | CC(C)CN(CC(C)C)c1ccc(-c2ccccc2-c2nnn[nH]2)cc1NC(=O)Cc1ccc(OC(F)(F)F)cc1 [Example 15, N-(4-(diisobutylamino)-2′-(1H-tetrazol-5-yl)biphenyl-3-yl)-2-(4-(trifluoromethoxy)phenyl)acetamide] |
